Experimental data from patent US10294234B2, “HIV inhibitor compounds” (priority 2017, dated 2019).
pEC50: −log10 of the molar value.

What was measured:
[1] = test system: HIV-1 (IIIB) in MT-4 cells; assay: MT-4 HIV assay; assay type: cell-based; settings: Human immunodeficiency virus 1, MT4, 120 h; HIV-1 (IIIB), MT-4 cells, 5 days, Cell Titer Glo; read-out: EC50
In short: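 Antiviral activity was read by Cell Titer Glo after a 5-day, 37 °C culture of MT-4 cells pre-infected with a 1:250 dilution of HIV-1 (IIIB). Compounds were tested as threefold dilution series in complete RPMI. Controls were no drug, mock infection and 5 uM AZT.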

[2] = microsomes
In short: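 Each compound (1 uM) is incubated in duplicate with 0.5 mg/mL liver microsomal protein from dog, rat or human plus NADPH-regenerating system. Samples taken at 2, 12, 25, 45 and 65 minutes are deproteinised and quantified by LC/MS/MS. Half-life gives Clint.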

in vivo [3] = assay: in vivo
Description: Pharmacokinetic Profiling Dog PK
Each dosing group consisted of three non-naïve male beagle dogs. At dosing, the animals weighed between 9 to 12 kg. The animals were fasted overnight prior to dose administration and up to four hours after dosing. The test article was administered by intravenous infusion over 30-minutes. The rate of infusion was adjusted according to the body weight of each animal to deliver a dose of 0.5 or 1.0 mg/kg. For the oral dosing group, the test article was administered by oral gavage at a dose volume of 2 mL/kg.
Serial venous blood samples (approximately 1.0 mL each) were collected at predose and 0.25, 0.48, 0.58, 0.75, 1.0, 1.5, 2, 4, 8, 12 and 24 hours post dose from each animal for the IV dosing group; blood samples were collected at predose, 0.25, 0.50, 1, 2 4, 6, 8,12 and 24 hours post dose for the oral dosing group. The blood samples were collected into Vacutainer™ tubes containing EDTA-K2 as the anti-coagulant and were immediately placed on wet ice pending centrifugation for plasma. An LC/MS/MS method was used to measure the concentration of test compound in plasma. Non-compartmental pharmacokinetic analysis was performed on the plasma concentration-time data. VSS=apparent volume of distribution, t1/2=half life, F=oral bioavailability.

in vivo [4] = settings: rat, in vivo; for Vd / RAT PO F: male, SD; for Vd / RAT IV CL / RAT IV T1/2: iv; for RAT PO F: 2.5 mg/kg
Description: Each dosing group consisted of 3 male naïve SD Rats. At dosing, the animals weighed between 0.27 to 0.32 kg. The animals were fasted overnight prior to dose administration. The test article was administered by intravenous infusion over 30 min. The rate of infusion was adjusted according to the body weight of each animal to deliver a dose of 0.5 or 1.0 mg/kg. For the oral dosing group, the test article was administered to animals by oral gavage administration. Serial venous blood samples (approximately 0.30 mL each) were taken at predose and 0.25, 0.48, 0.58, 0.75, 1.5, 3, 6, 8, 12 and 24 hours post dose for the IV dosing group animals. Blood samples were taken at predose, 0.25, 0.50, 1, 2, 4, 6, 8, 12 and 24 hours post dose for the oral group animals. The blood samples were collected into Vacutainer™ tubes containing EDTA-K2 as the anti-coagulant and were immediately placed on wet ice pending centrifugation for plasma. An LC/MS/MS method was used to measure the concentration of test compound in plasma. Non-compartmental pharmacokinetic analysis was performed on the plasma concentration-time data.

SMILES | pEC50 [1] | Dog. Pred. Cl. [2] [L/H/kg] | Human Pred Cl. [2] [L/H/kg] | Rat. Pred. Cl. [2] [L/H/kg] | DOG IV CL (in vivo [3]; dog, in vivo, iv) [L/h/kg] | DOG IV T1/2 (in vivo [3]; male beagle dogs, IV infusion over 30 minutes, 0.5 or 1.0 mg/kg) [h] | Vd (in vivo [3]; male, beagle, dog, in vivo, iv) [L/kg] | Vd (in vivo [4]) [L/kg] | RAT PO F (in vivo [4]) [%] | RAT IV CL (in vivo [4]) [L/h/kg] | RAT IV T1/2 (in vivo [4]) [h]
COC(=O)N[C@H](C(=O)N[C@@H](Cc1ccc(C#Cc2ccc(N3CC4CCC(C3)N4C3COC3)nc2)cc1)[C@@H](O)CN(Cc1ccc(-c2cnn(C(F)F)c2)cc1)NC(=O)[C@@H](NC(=O)OC)C(C)(C)C(F)(F)F)C(C)(C)C(F)(F)F [Example 63, Methyl ((5S,8S,9S,14S)-11-(4-(1-(difluoromethyl)-1H-pyrazol-4-yl)benzyl)-16,16,16-trifluoro-9-hydroxy-15,15-dimethyl-8-(4-((6-(8-(oxetan-3-yl)-3,8-diazabicyclo[3.2.1]octan-3-yl)pyridin-3-yl)ethynyl)benzyl)-3,6,13-trioxo-5-(1,1,1-trifluoro-2-methylpropan-2-yl)-2-oxa-4,7,11,12-tetraazahexadecan-14-yl)carbamate] | 8.37 | 0.86 | <0.11 | 0.2 | 0.28 | 8.16 | 2.4 | 5.46 | 19 | 0.42 | 11.9
COC(=O)N[C@H](C(=O)N[C@@H](Cc1ccc(C#Cc2ccc(N3CC4CCC(C3)N4C3COC3)nc2)cc1)[C@@H](O)CN(Cc1c(F)cc(-c2cnn(C(F)F)c2)cc1F)NC(=O)[C@@H](NC(=O)OC)C(C)(C)C(F)(F)F)C(C)(C)C(F)(F)F [Example 71, Methyl ((5S,8S,9S,14S)-11-(4-(1-(difluoromethyl)-1H-pyrazol-4-yl)-2,6-difluorobenzyl)-16,16,16-trifluoro-9-hydroxy-15,15-dimethyl-8-(4-((6-(8-(oxetan-3-yl)-3,8-diazabicyclo[3.2.1]octan-3-yl)pyridin-3-yl)ethynyl)benzyl)-3,6,13-trioxo-5-(1,1,1-trifluoro-2-methylpropan-2-yl)-2-oxa-4,7,11,12-tetraazahexadecan-14-yl)carbamate] | 8.47 | 0.47 | <0.11 | <0.18 | – | – | – | 7.26 | 24.6 | 0.9 | 9.27
COC(=O)N[C@H](C(=O)N[C@@H](Cc1ccc(C#Cc2ccc(N3CC4CCC(C3)N4C3COC3)nc2)cc1)[C@@H](O)CN(Cc1c(F)cc(-c2ccccn2)cc1F)NC(=O)[C@@H](NC(=O)OC)C(C)(C)C(F)(F)F)C(C)(C)C(F)(F)F [Example 130, Methyl ((5S,8S,9S,14S)-11-(2,6-difluoro-4-(pyridin-2-yl)benzyl)-16,16,16-trifluoro-9-hydroxy-15,15-dimethyl-8-(4-((6-(8-(oxetan-3-yl)-3,8-diazabicyclo 3.2.1 octan-3-yl)pyridin-3-yl)ethynyl)benzyl)-3,6,13-trioxo-5-(1,1,1-trifluoro-2-methylpropan-2-yl)-2-oxa-4,7,11,12-tetraazahexadecan-14-yl)carbamate] | 8.47 | – | 0.32 | <0.18 | – | – | – | 5.27 | 55.7 | 0.39 | 11.5
COC(=O)N[C@H](C(=O)N[C@@H](Cc1ccc(C#Cc2ccc(N3CC4CCC(C3)N4C3COC3)nc2)cc1)[C@@H](O)CN(Cc1ccc(-c2ccccn2)cc1)NC(=O)[C@@H](NC(=O)OC)C(C)(C)C(F)(F)F)C(C)(C)C(F)(F)F [Example 56, Methyl ((5S,8S,9S,14S)-16,16,16-trifluoro-9-hydroxy-15,15-dimethyl-8-(4-((6-(8-(oxetan-3-yl)-3,8-diazabicyclo[3.2.1]octan-3-yl)pyridin-3-yl)ethynyl)benzyl)-3,6,13-trioxo-11-(4-(pyridin-2-yl)benzyl)-5-(1,1,1-trifluoro-2-methylpropan-2-yl)-2-oxa-4,7,11,12-tetraazahexadecan-14-yl)carbamate] | 8.44 | 1.47 | 0.17 | 0.19 | – | – | – | 7.44 | 34.1 | 0.85 | 8.77
COC(=O)N[C@H](C(=O)N[C@@H](Cc1ccc(C#Cc2ccc(N3CC4CCC(C3)N4C3COC3)nc2)cc1)[C@@H](O)CN(Cc1c(F)cc(-c2ccccn2)cc1Cl)NC(=O)[C@@H](NC(=O)OC)C(C)(C)C(F)(F)F)C(C)(C)C(F)(F)F [Example 74, Methyl ((5S,8S,9S,14S)-11-(2-chloro-6-fluoro-4-(pyridin-2-yl)benzyl)-16,16,16-trifluoro-9-hydroxy-15,15-dimethyl-8-(4-((6-(8-(oxetan-3-yl)-3,8-diazabicyclo[3.2.1]octan-3-yl)pyridin-3-yl)ethynyl)benzyl)-3,6,13-trioxo-5-(1,1,1-trifluoro-2-methylpropan-2-yl)-2-oxa-4,7,11,12-tetraazahexadecan-14-yl)carbamate] | 8.17 | 1.53 | 0.17 | 0.2 | – | – | – | 5.07 | 35.8 | 0.39 | 11.6
COC(=O)N[C@H](C(=O)N[C@@H](Cc1ccc(C#Cc2ccc(N3CC4COCC(C3)N4C3COC3)nc2)cc1)[C@@H](O)CN(Cc1c(F)cc(-c2ccn(C(F)F)n2)cc1F)NC(=O)[C@@H](NC(=O)OC)C(C)(C)C(F)(F)F)C(C)(C)C(F)(F)F [Example 180, Methyl ((5S,8S,9S,14S)-11-(4-(1-(difluoromethyl)-1H-pyrazol-3-yl)-2,6-difluorobenzyl)-16,16,16-trifluoro-9-hydroxy-15,15-dimethyl-8-(4-((6-(9-(oxetan-3-yl)-3-oxa-7,9-diazabicyclo[3.3.1]nonan-7-yl)pyridin-3-yl)ethynyl)benzyl)-3,6,13-trioxo-5-(1,1,1-trifluoro-2-methylpropan-2-yl)-2-oxa-4,7,11,12-tetraazahexadecan-14-yl)carbamate] | 8.43 | – | <0.11 | <0.18 | – | – | – | 0.52 | 4.29 | 0.39 | 2.81
COC(=O)N[C@H](C(=O)NN(Cc1c(F)cc(-c2ccn(C(F)F)n2)cc1F)C[C@H](O)[C@H](Cc1ccc(C#Cc2cnc(N3CC4CCC(C3)N4C3COC3)nc2)cc1)NC(=O)[C@@H](NC(=O)C1CC1)C(C)(C)C(F)(F)F)C(C)(C)C(F)(F)F [Example 221, Methyl ((2S)-1-(2-((2S,3S)-3-((S)-2-(cyclopropanecarboxamido)-4,4,4-trifluoro-3,3-dimethylbutanamido)-2-hydroxy-4-(4-((2-(8-(oxetan-3-yl)-3,8-diazabicyclo[3.2.1]octan-3-yl)pyrimidin-5-yl)ethynyl)phenyl)butyl)-2-(4-(1-(difluoromethyl)-1H-pyrazol-3-yl)-2,6-difluorobenzyl)hydrazinyl)-4,4,4-trifluoro-3,3-dimethyl-1-oxobutan-2-yl)carbamate] | 8.35 | 0.14 | <0.11 | 0.28 | – | – | – | 4.41 | 19.9 | 0.32 | 11.5
